{"source": "patent US20260315437A1", "about": "“COMBINATION OF NAB-SIROLIMUS AND AN ESTROGEN SUPPRESOR FOR USE IN THE TREATMENT OF HORMONE-DEPENDENT CANCERS” (AADI Bioscience, Inc., priority 2023, published 2026)", "key": {"mTORC1 at Ser2448": {"system": "mTORC1 at Ser2448", "details": "cited from earlier work"}, "ABCB1/ABCG2": {"system": "ABCB1/ABCG2", "details": "cited from earlier work"}, "[1]": {"details": "in vivo; cited from earlier work"}, "CYP3A4": {"system": "CYP3A4", "details": "role: substrate; cited from earlier work"}, "HSA": {"system": "HSA", "details": "cited from earlier work"}, "human plasma proteins": {"system": "human plasma proteins", "details": "cited from earlier work"}, "p4EBP1": {"system": "p4EBP1", "assay": "Western blot analysis of p4EBP1 in MCF7 cells", "format": "cell-based", "details": "single agent, FIG. 3", "procedure": "(§1) A series of single-agent treatments of fulvestrant or nab-sirolimus and combination treatments of both fulvestrant and nab-sirolimus were separately applied to aliquots of hormone receptor positive breast cancer cell lines (either MCF7 or MDA-MB-361). The series including varying concentration of nab-sirolimus (20 nM or 80 nM) and fulvestrant (0.98 nM to 1000 nM). Following the application of the individual treatments, the cell aliquots were incubated for 5 days. Subsequently, the antiproliferative and cytotoxic effects of single agent and combination treatments were assessed using an automated trypan blue exclusion assay.\nWestern blot analysis was performed to assess p4EBP1 in MCF7 cells. […] Thus, addition of nab-sirolimus to endocrine-based therapies, such as fulvestrant, may overcome mechanisms of resistance."}, "pAKT": {"system": "pAKT", "assay": "Western blot analysis of pAKT in MCF7 cells", "format": "cell-based", "details": "fulvestrant combined with nab-sirolimus, FIG. 3, effect on nab-sirolimus-induced increase", "procedure": "as §1\nWestern blot analysis was performed to assess pAKT in MCF7 cells. […] Thus, addition of fulvestrant, to mTOR targeting agents, such as nab-sirolimus may overcome mechanisms of resistance."}}}
{"smiles": "COc1ccc(-c2ccc3c(N4CCOCC4)nc(N4C[C@@H](C)O[C@@H](C)C4)nc3n2)cc1CO", "note": "[KU-0063794]", "values": [{"measurement": "inhibition of phosphorylation of mTORC1 at Ser2448", "setting": "mTORC1 at Ser2448", "result": "inhibits the phosphorylation of mTORC1 at Ser2448 in a dose-dependent and time-dependent manner"}]}
{"smiles": "COc1ccc(COc2cc3oc(=O)c4cc(C(C)O)ccc4c3cc2OC)cc1", "note": "(stereo not drawn) [Palomid 529]", "values": [{"measurement": "affinity for ABCB1/ABCG2", "setting": "ABCB1/ABCG2", "result": "lacks affinity for ABCB1/ABCG2"}, {"measurement": "brain penetration", "setting": "[1]", "result": "good brain penetration"}]}
{"smiles": "CO[C@H]1C[C@@H]2CC[C@@H](C)[C@@](O)(O2)C(=O)C(=O)N2CCCC[C@H]2C(=O)O[C@H]([C@H](C)C[C@@H]2CC[C@@H](O)[C@H](OC)C2)CC(=O)[C@H](C)/C=C(\\C)[C@@H](O)[C@@H](OC)C(=O)[C@H](C)C[C@H](C)/C=C/C=C/C=C/1C", "note": "[Sirolimus, sirolimus]", "values": [{"measurement": "metabolism", "setting": "CYP3A4", "result": "metabolized primarily by CYP3A4"}, {"measurement": "binding to HSA", "setting": "HSA", "result": "shown to bind HSA"}]}
{"smiles": "CC(=O)O[C@@]12CO[C@@H]1C[C@H](O)[C@@]1(C)C(=O)[C@H](O)C3=C(C)[C@@H](OC(=O)[C@H](O)[C@@H](NC(=O)OC(C)(C)C)c4ccccc4)C[C@@](O)([C@@H](OC(=O)c4ccccc4)[C@H]21)C3(C)C", "note": "[docetaxel]", "values": [{"measurement": "binding to human plasma proteins", "setting": "human plasma proteins", "result": "shown to bind to human plasma proteins"}]}
{"smiles": "C[C@]12CC[C@@H]3c4ccc(O)cc4C[C@@H](CCCCCCCCC[S+]([O-])CCCC(F)(F)C(F)(F)F)[C@H]3[C@@H]1CC[C@@H]2O", "note": "(stereo partly drawn) [fulvestrant]", "values": [{"measurement": "p4EBP1 level", "setting": "p4EBP1", "result": "increased p4EBP1 in response to fulvestrant in a dose-dependent manner"}, {"measurement": "pAKT level in combination", "setting": "pAKT", "result": "reversed by combination with fulvestrant in a dose-dependent manner"}]}
{"smiles": "CC(C)c1cccc(C(C)C)c1O", "note": "[propofol]", "values": [{"measurement": "binding to HSA", "setting": "HSA", "result": "shown to bind HSA"}]}
